Experiment [1] relates to HCMV recombinant mutant virus (RV145). In words: microbe, parasite or virus in culture. The class given is cell-based, human cytomegalovirus. Particulars: for IC50: Human betaherpesvirus 5, read-out: IC50 ug/ml HCMV, HCMV. In short, it runs like this: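 Human foreskin fibroblasts infected with HCMV RV145 carrying a viral-promoter-driven beta-glucuronidase gene, in presence of compound. At 96 h post-infection, lysates assayed for beta-glucuronidase with colorimetric or fluorogenic glucuronide substrate as replication read-out. IC50 estimated from varying inhibitor amounts.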

Experiment [2] has as its system HSV-1. Kind of experiment: HSV Antiviral (ELISA) Assay in Vero cells. Format: cell-based, herpes simplex virus type 1. Particulars: HSV-1, Vero cells; for IC50: Human alphaherpesvirus 1, read-out: IC50 (ug/ml) HSV. In short, it runs like this:
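Viral replication was quantified by cell-fixed ELISA for HSV glycoprotein D, using a β-galactosidase reporter and fluorogenic umbelliferyl substrate, about 24 h after HSV-1 infection (MOI 0.006) of Vero cells. Compounds, at several concentrations, were added 30 min pre-infection. IC50 was derived from fluorescence relative to the compound-free signal.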
In general terms: ELISA stands for enzyme-linked immunosorbent assay.

For experiment [3], the system named is VZV strain Ellen. In words: VZV Antiviral (ELISA) Assay in human foreskin fibroblast cells. The class given is cell-based, varicella-zoster virus. Particulars: for IC50: read-out: IC50 (ug/ml) VZV. In short, it runs like this: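 HFF cells infected overnight with VZV Ellen at MOI <0.1, mixed with uninfected cells, were seeded with compound and grown 3 days at 37° C in DMEM/2% FBS. Viral glycoprotein II was detected by ELISA with β-galactosidase-linked secondary; IC50 from fluorescence versus no-compound wells.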

Where [4] appears, read: Human alphaherpesvirus 3, Fibroblast.

Experimental findings from patent US6462055B2, “Alpha-methylbenzyl-containing thiourea inhibitors of herpes viruses containing a phenylenediamine group” (Wyeth, priority 1998, dated 2002) are described below.

Structures are written as SMILES. Converted amounts (≈) assume the structure as drawn.

Consider `COC(=O)c1cccc(NC(=S)Nc2ccc(NC(=O)c3ccccc3F)cc2)c1` [Example 950, 3-{3-[4-(2-Fluoro-benzoylamino)-phenyl]-thioureido}-benzoic acid methyl ester], for which the values for the IC50 in experiment [1], in experiment [2] and in experiment [3] (setting [4]) were greater than 10 µg/mL, 8 µg/mL (≈ 18.9 µM) and greater than 10 µg/mL, respectively.

As for `O=C(CN1CCOCC1)Nc1ccc(NC(=S)Nc2ccc(NC(=O)c3ccccc3F)cc2)cc1Cl` [Example 367], in experiment [1], the “IC50 ug/ml HCMV” value was greater than 10 µg/mL. For the same compound, the “IC50 (ug/ml) HSV” value in experiment [2] was greater than 10 µg/mL. In addition, in experiment [3], the “IC50 (ug/ml) VZV” value was greater than 10 µg/mL and the “% inhibition 10 ug/ml VZV” value is on record as 20%.

For `COc1cc(OC)c(NC(=S)Nc2ccc(NC(=O)c3ccccc3F)c(Cl)c2)cc1Cl` [Example 278], the “IC50 ug/ml HCMV” value in experiment [1] is greater than 10 µg/mL. Also, the “IC50 (ug/ml) HSV” value in experiment [2] was greater than 10 µg/mL. Moreover, in experiment [3], the “IC50 (ug/ml) VZV” value was greater than 10 µg/mL and the “% inhibition 10 ug/ml VZV” value is given as 15%.

On to `COc1ccc(C(=O)Nc2ccc(NC(=S)Nc3cc(Cl)c(OC)cc3OC)cc2)cc1` [Example 121], for which the “IC50 ug/ml HCMV” value in experiment [1] stood at 6 µg/mL (≈ 12.7 µM). Moreover, the “IC50 (ug/ml) HSV” value in experiment [2] was determined as 0.3 µg/mL (≈ 0.636 µM). In addition, in experiment [3], the “IC50 (ug/ml) VZV” value was greater than 10 µg/mL and the “% inhibition 10 ug/ml VZV” value was determined as 0%.

For the compound `CC(C)C(NC(=S)Nc1ccc(NC(=O)c2ccccc2F)cc1)c1ccc(F)cc1` (stereo not shown) [Example 790], the “IC50 ug/ml HCMV” value in experiment [1] came to 1.5 µg/mL (≈ 3.41 µM). Further, the “IC50 (ug/ml) HSV” value in experiment [2] is greater than 10 µg/mL. Further, the “IC50 (ug/ml) VZV” value in experiment [3] stood at 2.5 µg/mL (≈ 5.69 µM).

As for `CC(NC(=S)Nc1ccc(NC(=O)c2ccccc2F)cc1)c1ccc(Cl)cc1` (stereo not shown) [Example 781], the “IC50 ug/ml HCMV” value in experiment [1] stood at 1.8 µg/mL (≈ 4.21 µM). In addition, the “IC50 (ug/ml) HSV” value in experiment [2] was greater than 10 µg/mL. Besides, in experiment [3], the “IC50 (ug/ml) VZV” value amounted to 0.6 µg/mL (≈ 1.4 µM).

Turning to `CC(NC(=S)Nc1ccc(NC(=O)c2ccccc2Br)cc1)c1ccc(F)cc1` (stereo not shown) [Example 795], the “IC50 ug/ml HCMV” value in experiment [1] came out at 4.1 µg/mL (≈ 8.68 µM). In addition, in experiment [2], the “IC50 (ug/ml) HSV” value amounted to 8.6 µg/mL (≈ 18.2 µM). Moreover, the “IC50 (ug/ml) VZV” value in experiment [3] was greater than 7.5 µg/mL.

On to `COc1cccc(C(=O)Nc2ccc(NC(=S)Nc3cc(Cl)c(OC)cc3OC)cc2)c1` [Example 120], for which the “IC50 ug/ml HCMV” value in experiment [1] amounted to 5 µg/mL (≈ 10.6 µM). In addition, the “IC50 (ug/ml) HSV” value in experiment [2] came out at 0.8 µg/mL (≈ 1.7 µM). Also, in experiment [3], the “IC50 (ug/ml) VZV” value is greater than 10 µg/mL and the “% inhibition 10 ug/ml VZV” value worked out at 25%.

With `CN(C)c1c(Cl)cccc1NC(=S)Nc1ccc(NC(=O)c2c(F)cccc2F)cc1` [Example 504], the “IC50 ug/ml HCMV” value in experiment [1] was found to be 2 µg/mL (≈ 4.34 µM). The “IC50 (ug/ml) HSV” value in experiment [2] is 6 µg/mL (≈ 13 µM). In addition, in experiment [3], the “IC50 (ug/ml) VZV” value is 4.5 µg/mL (≈ 9.76 µM) and the “% inhibition 10 ug/ml VZV” value turned out to be 99%.

`Cc1ccc(NC(=S)Nc2ccc(NC(=O)c3ccccc3F)cc2)cc1F` [Example 997, 2-Fluoro-N-{4-[3-(3-fluoro-4-methyl-phenyl)-thioureido]-phenyl}-benzylamide]: the “IC50 ug/ml HCMV” value in experiment [1] was 4 µg/mL (≈ 10.1 µM). The “IC50 (ug/ml) HSV” value in experiment [2] worked out at 1.9 µg/mL (≈ 4.78 µM). The “IC50 (ug/ml) VZV” value in experiment [3] is greater than 10 µg/mL.

In the case of `COc1cc(OC)c(NC(=S)Nc2ccc(NC(=O)c3ccccc3OC)cc2)cc1Cl` [Example 119], the “IC50 ug/ml HCMV” value in experiment [1] is greater than 10 µg/mL. Moreover, the “IC50 (ug/ml) HSV” value in experiment [2] was found to be 0.5 µg/mL (≈ 1.06 µM). Moreover, in experiment [3], the “IC50 (ug/ml) VZV” value was greater than 10 µg/mL and the “% inhibition 10 ug/ml VZV” value came out at 1%.

With `O=C(Nc1ccc(NC(=S)Nc2ccc(OCC(F)(F)F)cc2OCC(F)(F)F)cc1)c1ccccc1F` [Example 1010, N-(4-{3-[2,4-Bis-(2,2,2-trifluoro-ethoxy)-phenyl]-thioureido}-phenyl)-2-fluoro-benzamide], the IC50 in experiment [1], in experiment [2] and in experiment [3] (setting [4]) was greater than 10 µg/mL in each case.

With `COc1ccccc1C(=O)Nc1ccc(NC(=S)NC(C)c2cc3ccccc3o2)cc1` (stereo not shown) [Example 1018, N-{4-[3-(1-Benzofuran-2-yl-ethyl)-thioureido]-phenyl}-2-methoxy-benzamide], the results for the IC50 in experiment [1], in experiment [2] and in experiment [3] (setting [4]) were greater than 10 µg/mL, greater than 10 µg/mL and 0.09 µg/mL (≈ 0.202 µM), respectively.

`CC(C)Oc1ccc(NC(=S)Nc2ccc(NC(=O)c3ccccc3F)cc2)cc1Cl` [Example 808]: the “IC50 ug/ml HCMV” value in experiment [1] was greater than 10 µg/mL. Moreover, in experiment [2], the “IC50 (ug/ml) HSV” value was greater than 10 µg/mL. Besides, the “IC50 (ug/ml) VZV” value in experiment [3] is greater than 7.5 µg/mL.

Take `O=C(Nc1ccc(NC(=S)Nc2ccccc2)cc1)c1ccccc1F` [Example 859, 2-Fluoro-N-[4-(3-phenyl-thioureido)-phenyl]-benzamide]: the IC50 in experiment [1], in experiment [2] and in experiment [3] (setting [4]) was greater than 10 µg/mL each time. Also, in experiment [3] (Human alphaherpesvirus 3, Fibroblast, read-out: % inhibition 10 ug/ml VZV, 10 ug/ml), the inhibition at 10 µg/mL is 20%.
